Results: US12629419B2, “Prevention or mitigation of T-cell engaging agent-related adverse effects” (Hoffmann-La Roche Inc., priority 2020, dated 2026)
“Also recorded” adds a separate entry of the source.

Tests used:
[1] = tested on: CD19+ B cells; assay: CD20-TCB-induced B cell depletion in non-tumor bearing humanized NSG mice; format: in vivo; details: 48 and 72 hours; 0.15 mg/kg CD20-TCB; p.o. 2, 5, 10 mg/kg sirolimus, 10 mg/kg everolimus, 10 mg/kg temsirolimus, ruxolitinib
Method: FIG. 95. In vivo experiment timelines and dosing schedule.
FIG. 96. […] The proportion of CD19+ B cells among human CD45+(huCD45) cells was measured by flow cytometry in the blood collected 48 hrs and 72 hrs post-treatment with CD20-TCB. Mean of n=4 mice or n=3 mice (everolimus group)+/−SEM. The statistical comparison to the vehicle group is summarized table (C) where the p values were calculated by Kruskal-Wallis test.
Different doses of mTOR, JAK and Src kinase inhibitors were tested to determine the optimal dose that reduces CD20-TCB-induced cytokine release while minimally interfering with B cell depletion. […] The doses of 30 and 60 mg/kg were tested for ruxolitinib and the doses of 10 and 50 mg/kg were tested for dasatinib. To reproduce the clinical route of administration, the different kinase inhibitors were given orally (p.o.) once or twice per day as depicted in FIG. 95. Mice were bled 4 hours and 24 hours after the treatment with CD20-TCB (FIG. 95) to collect serum for cytokine level measurements by Luminex. Additionally, blood was collected 48 hours and 72 hours (termination) post treatment with CD20-TCB to measure the percentage of CD19+ B cells among human CD45+ cells by flow cytometry (FIG. 95).

[2] = tested on: CD19-TCB-induced cytokine release; assay: CD19-TCB-induced cytokine release in SUDLH-8 assay (Luminex); format: cell-based; details: 24 hrs
Method: PBMCs were co-cultured together with CellTrace™ Violet (CTV) labelled SUDLH-8 tumor cells and escalating concentrations of CD19-TCB in the presence of the different kinase inhibitors, including also the Src inhibitor dasatinib (FIG. 64). At assay endpoint (24 hrs), the killing of CTV labelled SUDLH-8 cells was measured by flow cytometry by exclusion of the dead SUDLH-8 cells with a Live/Dead stain. […] Lastly, the levels of cytokines were measured in the supernatants of the assay to evaluate the effect of mTOR, JAK and Src inhibitors on CD19-TCB-induced cytokine release.
(§1) At assay endpoint (24 hrs), the killing of CTV labelled SUDLH-8 cells was measured by flow cytometry by exclusion of the dead SUDLH-8 cells with a Live/Dead stain. […] Lastly, the levels of cytokines were measured in the supernatants of the assay to assess the effect of the JAK inhibitors on CD19-TCB-induced cytokine release.
as §1, with “stain to evaluate the effect of the different mitigation approaches on CD19-TCB-dependent killing.” for “stain.”, “address” for “assess”

[3] = tested on: CD20-TCB-induced cytokine release; assay: CD20-TCB killing assay, inhibitors added after 18 hours: cytokine release from pre-activated effector cells; format: cell-based; details: 100 nM added at 18 h
Method: FIG. 34. In vitro killing assay set-up. Cell Trace™ Violet (CTV) labelled WSU DLCL2 tumor cells were co-cultured together with PBMCs [E:T=200′000:20′000] and stimulated with CD20-TCB for 18 h.
In this assay, CTV labelled WSU DLCL2 tumors cells were co-cultured with PBMCs in the presence of escalating doses of CD20-TCB for 18 hours.

[4] = tested on: MKN45 NucLight Red (NLR) target cells; assay: killing assay with PBMCs, MKN45 NLR target cells and CEA-TCB (Incucyte); format: cell-based
[5] = tested on: CD19-TCB-induced cytokine release; assay: CD19-TCB NALM-6 assay, inhibitors added after 24 hrs: cytokine release; format: cell-based; details: 100 nM added at 24 hrs; between 24 hrs and 48 hrs
Method: FIG. 78. In vitro killing assay set-up. PBMCs were co-cultured with CTV labelled NALM-6 cells (E:T=10:1) in the presence of escalating concentrations of CD19-TCB for 24 hrs. At 24 hrs, the culture medium was supplemented with 100 nM dasatinib, 100 nM sirolimus or 100 nM ruxolitinib.
To assess whether the mTOR inhibitor sirolimus, the JAK1/2 inhibitor ruxolitinib and the Src inhibitor dasatinib can prevent further release of cytokines induced by the treatment of CD19-TCB, they were added in an in vitro killing assay after 24 hrs of activation (FIG. 78). In this assay CTV labelled NALM-6 tumors cells were co-cultured with PBMCs in the presence of escalating doses of CD19-TCB for 24 hrs. At 24 hrs, 100 nM ruxolitinib, 100 nM sirolimus or 100 nM dasatinib were added in the system. To verify if T cells were activated before the addition of the different kinase inhibitors, tumor cell killing and cytokine release were measured at 24 hrs (FIGS. 79 and 80). Lastly, cytokine release and tumor cell killing were measured at 48 hrs to assess the effect of the addition of 100 nM ruxolitinib, 100 nM sirolimus or 100 nM dasatinib on CD19-TCB-induced cytokine release as compared to the effect on killing.

[6] = 100 nM, compared with dexamethasone
[7] = inhibitor doses 12.5 nM to 1 μM, 50 000 PBMCs: 5 000 target cells, Incucyte

Compound: CO[C@H]1C[C@@H]2CC[C@@H](C)[C@@](O)(O2)C(=O)C(=O)N2CCCC[C@H]2C(=O)O[C@H]([C@H](C)C[C@@H]2CC[C@@H](OC(=O)C(C)(CO)CO)[C@H](OC)C2)CC(=O)[C@H](C)/C=C(\C)[C@@H](O)[C@@H](OC)C(=O)[C@H](C)C[C@H](C)/C=C/C=C/C=C/1C [temsirolimus, Temsirolimus]
- B cell depletion induced by CD20-TCB (percentage of CD19+ B cells among human CD45+ cells in peripheral blood) [1]: did not interfere; also recorded: minimally interfered
- CD19-TCB-induced cytokine release ([2]; 100 nM inhibitor): comparable to the effect of the corticosteroid dexamethasone
- CD19-TCB-induced IFN-γ and TNF-α [2, 6]: comparable to the effect of dexamethasone
- further release of IFN-γ, IL-2, IL-6 ([3]; 1 nM CD20-TCB, three donors): prevented further release
- release of TNF-α and IL-1β ([3]; between 18 hours and 44 hours): to a lower extent
- MKN45 NLR target cell killing by 10 nM CEA-TCB [4, 7]: only partially reduced

Compound: CO[C@H]1C[C@@H]2CC[C@@H](C)[C@@](O)(O2)C(=O)C(=O)N2CCCC[C@H]2C(=O)O[C@H]([C@H](C)C[C@@H]2CC[C@@H](OCCO)[C@H](OC)C2)CC(=O)[C@H](C)/C=C(\C)[C@@H](O)[C@@H](OC)C(=O)[C@H](C)C[C@H](C)/C=C/C=C/C=C/1C [everolimus, Everolimus]
- B cell depletion induced by CD20-TCB (percentage of CD19+ B cells among human CD45+ cells in peripheral blood) [1]: did not interfere; also recorded: minimally interfered
- CD19-TCB-induced cytokine release ([2]; 100 nM inhibitor): comparable to the effect of the corticosteroid dexamethasone
- CD19-TCB-induced IFN-γ and TNF-α [2, 6]: comparable to the effect of dexamethasone
- further release of IFN-γ, IL-2, IL-6 ([3]; 1 nM CD20-TCB, three donors): prevented further release
- IL-2, IFN-γ, IL-6 and GM-CSF release ([3]; between 18 hours and 44 hours): stopped
- release of TNF-α and IL-1β ([3]; between 18 hours and 44 hours): to a lower extent
- MKN45 NLR target cell killing by 10 nM CEA-TCB [4, 7]: only partially reduced

Compound: CO[C@H]1C[C@@H]2CC[C@@H](C)[C@@](O)(O2)C(=O)C(=O)N2CCCC[C@H]2C(=O)O[C@H]([C@H](C)C[C@@H]2CC[C@@H](O)[C@H](OC)C2)CC(=O)[C@H](C)/C=C(\C)[C@@H](O)[C@@H](OC)C(=O)[C@H](C)C[C@H](C)/C=C/C=C/C=C/1C [sirolimus, Sirolimus]
- further release of IFN-γ, TNF-α, IL-2 and IL-6 [5]: prevented further release
- B cell depletion induced by CD20-TCB (percentage of CD19+ B cells among human CD45+ cells in peripheral blood) [1]: did not interfere; also recorded: minimally interfered
- CD19-TCB-induced cytokine release ([2]; 100 nM inhibitor): comparable to the effect of the corticosteroid dexamethasone
- CD19-TCB-induced IFN-γ and TNF-α [2, 6]: comparable to the effect of dexamethasone
- further release of IFN-γ, IL-2, IL-6 ([3]; 1 nM CD20-TCB, three donors): prevented further release
- IL-2, IFN-γ, IL-6 and GM-CSF release ([3]; between 18 hours and 44 hours): stopped
- release of TNF-α and IL-1β ([3]; between 18 hours and 44 hours): to a lower extent
- MKN45 NLR target cell killing by 10 nM CEA-TCB [4, 7]: only partially reduced

Compound: N#CC[C@H](C1CCCC1)n1cc(-c2ncnc3[nH]ccc23)cn1 [ruxolitinib, Ruxolitinib]
- further release of IFN-γ, TNF-α and IL-6 [5]: only prevented further release
- B cell depletion induced by CD20-TCB (percentage of CD19+ B cells among human CD45+ cells in peripheral blood) [1]: slightly interfered; also recorded: minimally interfered
- CD19-TCB-induced IFN-γ, TNF-α, IL-6 and GM-CSF release ([2]; 100 nM inhibitor): prevented
- CD19-TCB-induced cytokine release ([2]; 100 nM inhibitor): comparable to the effect of the corticosteroid dexamethasone
- CD19-TCB-induced IFN-γ and TNF-α [2, 6]: comparable to the effect of dexamethasone
- CD19-TCB-induced IL-2 and GM-CSF [2, 6]: weaker
- IL-2 release ([3]; 1 nM CD20-TCB, three donors): did not prevent
- further release of IFN-γ and IL-6 ([3]; 1 nM CD20-TCB, three donors): prevented further release
- further production of IFN-γ, IL-6 ([3]; between 18 hours and 44 hours): prevented further production
- further production of IL-2 ([3]; between 18 hours and 44 hours): did not prevent further production
- killing of MKN45 NLR tumor cells induced by 1 nM CEA-TCB ([4]; concentration of 1 μM): partially prevented
- killing of MKN45 NLR tumor cell induced by 1 nM CEA-TCB ([4]; concentrations between 0 nM and 100 nM): did not prevent
- MKN45 NLR target cell killing by 10 nM CEA-TCB ([4]; inhibitor doses 6.25 nM to 100 nM): only partially reduced
